Assays:
Type in all cases: biochemical
[1] = molecular target: PLK1 (Homo sapiens, UniProt P53350); experiment: PLK1 Inhibition Assay I (radioactive-phosphate incorporation); settings: Ki(app); PLK1 Inhibition Assay I or II (table does not say which)
Summary of the method: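 Ki(app) values came from non-linear regression of initial rates after background subtraction, with phosphopeptide measured by phosphocellulose filter binding and scintillation counting. PLK1 at 2 nM was preincubated with compound (typically from 10 μM, 2-fold dilutions) for 10 min, then run 240 min at 25° C with 350 μM [γ-33P]ATP and 450 μM peptide substrate in HEPES pH 7.5 buffer.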

[2] = molecular target: PLK2 (Homo sapiens, UniProt Q9NYY3); experiment: PLK2 Inhibition Assay (radioactive-phosphate incorporation); settings: selectivity ratio, PLK2 over PLK1
Chain of PLK2 (Q9NYY3 whole entry): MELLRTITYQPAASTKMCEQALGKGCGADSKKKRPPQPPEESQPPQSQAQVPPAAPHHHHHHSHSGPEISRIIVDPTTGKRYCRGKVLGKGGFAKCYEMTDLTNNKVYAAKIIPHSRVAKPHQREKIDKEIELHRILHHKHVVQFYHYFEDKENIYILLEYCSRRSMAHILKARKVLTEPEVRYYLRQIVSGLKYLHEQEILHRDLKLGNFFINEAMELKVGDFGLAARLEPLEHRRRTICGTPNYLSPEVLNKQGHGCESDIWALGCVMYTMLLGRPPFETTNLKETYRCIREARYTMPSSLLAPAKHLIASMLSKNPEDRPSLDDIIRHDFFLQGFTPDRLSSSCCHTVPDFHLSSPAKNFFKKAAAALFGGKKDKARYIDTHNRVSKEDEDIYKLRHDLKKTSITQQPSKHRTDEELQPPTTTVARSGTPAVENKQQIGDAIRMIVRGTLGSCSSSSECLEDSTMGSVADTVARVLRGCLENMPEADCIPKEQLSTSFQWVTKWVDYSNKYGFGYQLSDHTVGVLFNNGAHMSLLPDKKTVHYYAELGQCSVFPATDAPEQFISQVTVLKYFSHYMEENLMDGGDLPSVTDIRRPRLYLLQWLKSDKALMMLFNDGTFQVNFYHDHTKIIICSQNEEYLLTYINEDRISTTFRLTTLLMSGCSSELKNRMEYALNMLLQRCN
Method: (§1) The compounds of the present invention are evaluated as inhibitors of human PLK kinase using the following assays.
Compounds were screened for their ability to inhibit PLK2 using a radioactive-phosphate incorporation assay. Assays were carried out in a mixture of 25 mM HEPES (pH 7.5), 10 mM MgCl2, 0.1% BSA, and 2 mM DTT. Final substrate concentrations were 200 μM [γ-33P]ATP (57 mCi 33P ATP/mmol ATP, Amersham Pharmacia Biotech/Sigma Chemicals) and 300 μM peptide (KKKISDELMDATFADQEAK) [SEQ ID:3]. Assays were carried out at 25° C. in the presence of 25 nM PLK2. An assay stock buffer solution was prepared containing all of the reagents listed above, with the exception of ATP and the test compound of interest. 30 μL of the stock solution was placed in a 96 well plate followed by addition of 2 μL of DMSO stock containing serial dilutions of the test compound (typically starting from a final concentration of 10 μM with 2-fold serial dilutions) in duplicate (final DMSO concentration 5%). The plate was pre-incubated for 10 minutes at 25° C. and the reaction initiated by addition of 8 μL [γ-33P]ATP (final concentration 200 μM).
(§2) The reaction was stopped after 90 minutes by the addition of 100 μL 0.14 M phosphoric acid. A multiscreen phosphocellulose filter 96-well plate (Millipore, Cat No. MAPHN0B50) was pretreated with 100 μL 0.2M phosphoric acid prior to the addition of 125 μL of the stopped assay mixture. The plate was washed with 4×200 μL 0.2 M phosphoric acid. After drying, 100 μL Optiphase ‘SuperMix’ liquid scintillation cocktail (Perkin Elmer) was added to the well prior to scintillation counting (1450 Microbeta Liquid Scintillation Counter, Wallac).
(§3) After removing mean background values for all of the data points, Ki(app) data were calculated from non-linear regression analysis of the initial rate data using the Prism software package (GraphPad Prism version 3.0cx for Macintosh, GraphPad Software, San Diego Calif., USA).

[3] = molecular target: T1, PLK3 (S38-A340) (Homo sapiens, UniProt Q9H4B4); experiment: PLK3 Inhibition Assay (radioactive-phosphate incorporation); settings: selectivity ratio, PLK3 over PLK1
T1 construct: in the presence of 5 nM PLK3 (S38-A340)
T1 sequence (Q9H4B4 58-340 limits assumed): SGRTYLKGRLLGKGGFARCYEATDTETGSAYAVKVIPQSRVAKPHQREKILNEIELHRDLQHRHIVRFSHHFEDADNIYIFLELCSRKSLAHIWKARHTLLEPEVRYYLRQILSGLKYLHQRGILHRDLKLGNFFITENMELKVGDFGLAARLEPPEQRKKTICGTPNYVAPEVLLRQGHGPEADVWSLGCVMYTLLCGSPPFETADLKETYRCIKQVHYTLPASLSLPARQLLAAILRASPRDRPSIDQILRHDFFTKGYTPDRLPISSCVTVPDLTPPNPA
Method: as §1
Compounds were screened for their ability to inhibit PLK3 using a radioactive-phosphate incorporation assay. Assays were carried out in a mixture of 25 mM HEPES (pH 7.5), 10 mM MgCl2, and 1 mM DTT. Final substrate concentrations were 75 μM [γ-33P]ATP (60 mCi 33P ATP/mmol ATP, Amersham Pharmacia Biotech/Sigma Chemicals) and 10 μM peptide (SAM68 protein Δ332-443). Assays were carried out at 25° C. in the presence of 5 nM PLK3 (S38-A340). An assay stock buffer solution was prepared containing all of the reagents listed above, with the exception of ATP and the test compound of interest. 30 μL of the stock solution was placed in a 96 well plate followed by addition of 2 μL of DMSO stock containing serial dilutions of the test compound (typically starting from a final concentration of 10 μM with 2-fold serial dilutions) in duplicate (final DMSO concentration 5%). The plate was pre-incubated for 10 minutes at 25° C. and the reaction initiated by addition of 8 μL [γ-33P]ATP (final concentration 75 μM).
as §2, with “60” for “90”, “0.14M” for “0.14 M”
as §3

Chain of PLK1 (P53350 whole entry): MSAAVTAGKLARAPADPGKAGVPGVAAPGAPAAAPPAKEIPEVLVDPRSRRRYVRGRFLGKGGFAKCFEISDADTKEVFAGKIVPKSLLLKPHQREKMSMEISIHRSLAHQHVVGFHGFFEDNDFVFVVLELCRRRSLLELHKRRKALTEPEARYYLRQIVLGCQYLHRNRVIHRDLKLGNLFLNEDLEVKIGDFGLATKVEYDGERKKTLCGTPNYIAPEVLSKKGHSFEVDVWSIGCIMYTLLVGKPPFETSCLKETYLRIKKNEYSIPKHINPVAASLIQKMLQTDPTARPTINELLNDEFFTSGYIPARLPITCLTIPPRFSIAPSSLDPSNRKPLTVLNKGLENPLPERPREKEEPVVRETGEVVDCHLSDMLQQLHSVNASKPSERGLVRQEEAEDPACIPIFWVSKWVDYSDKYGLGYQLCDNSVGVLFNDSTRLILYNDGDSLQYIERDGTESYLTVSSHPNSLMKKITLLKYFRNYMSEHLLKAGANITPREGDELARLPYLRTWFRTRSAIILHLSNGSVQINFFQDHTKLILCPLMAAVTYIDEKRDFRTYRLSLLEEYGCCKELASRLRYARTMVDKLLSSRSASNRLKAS

| Structure (SMILES) | Ki [1] [nM] | Ki(PLK2)/Ki(PLK1) [2] | Ki(PLK3)/Ki(PLK1) [3] |
| --- | --- | --- | --- |
| CC(Nc1ncc(C#N)c(-c2c[nH]c3ncc(C(F)(F)F)cc23)n1)c1ccc(N2CCNCC2)nc1 (stereo not drawn) [Compound I-167, 2-(1-(6-(piperazin-1-yl)pyridin-3-yl)ethylamino)-4-(5-(trifluoromethyl)-1H-pyrrolo[2,3-b]pyridin-3-yl)pyrimidine-5-carbonitrile] | < 3 | 914 | 586 |
| CC(Nc1ncc(C#N)c(-c2c[nH]c3ncc(C(F)(F)F)cc23)n1)c1ccc(N2CCNCC2)cc1 (stereo not drawn) [Compound I-124, 2-(1-(4-(piperazin-1-yl)phenyl)ethylamino)-4-(5-(trifluoromethyl)-1H-pyrrolo[2,3-b]pyridin-3-yl)pyrimidine-5-carbonitrile] | < 3 | 323 | 185 |
| CNCCN(C)c1ccc([C@@H](C)Nc2ncc(C#N)c(-c3c[nH]c4ncc(C(F)(F)F)cc34)n2)cn1 [Compound I-275, 2-((R)-1-(6-(methyl(2-(methylamino)ethyl)amino)pyridin-3-yl)ethylamino)-4-(5-(trifluoromethyl)-1H-pyrrolo[2,3-b]pyridin-3-yl)pyrimidine-5-carbonitrile] | < 3 | 313 | 919 |
| C[C@@H](Nc1ncc(C#N)c(-c2c[nH]c3ncc(C(F)(F)F)cc23)n1)c1ccc(N2CCN(C)CC2)cc1F [Compound I-149, 2-((R)-1-(2-fluoro-4-(4-methylpiperazin-1-yl)phenyl)ethylamino)-4-(5-(trifluoromethyl)-1H-pyrrolo[2,3-b]pyridin-3-yl)pyrimidine-5-carbonitrile] | < 3 | <130 | <100 |
| CC(Nc1ncc(C#N)c(-c2c[nH]c3ncc(C(F)(F)F)cc23)n1)c1ccc(N2CCN(C)CC2)cc1 (stereo not drawn) [Compound I-102, 2-(1-(4-(4-methylpiperazin-1-yl)phenyl)ethylamino)-4-(5-(trifluoromethyl)-1H-pyrrolo[2,3-b]pyridin-3-yl)pyrimidine-5-carbonitrile] | < 3 | 113 | 28 |
| C[C@@H]1CN(c2ccc([C@@H](C)Nc3ncc(C#N)c(-c4c[nH]c5ncc(C(F)(F)F)cc45)n3)cn2)CCN1 [Compound I-274, 2-((R)-1-(6-((R)-3-methylpiperazin-1-yl)pyridin-3-yl)ethylamino)-4-(5-(trifluoromethyl)-1H-pyrrolo[2,3-b]pyridin-3-yl)pyrimidine-5-carbonitrile] | < 3 | 4074 |  |
| C[C@H](Nc1ncc(C#N)c(-c2c[nH]c3ncc(C(F)(F)F)cc23)n1)c1ccc(N2CCN(C)CC2)nc1 [Compound I-148] | 3 to 40 | 63 | 70 |
| C[C@@H]1CN(c2ccc([C@@H](C)Nc3ncc(C#N)c(-c4c[nH]c5ncc(C(F)(F)F)cc45)n3)cn2)C[C@H](C)N1 [Compound I-276, 2-((R)-1-(6-((3S,5R)-3,5-dimethylpiperazin-1-yl)pyridin-3-yl)ethylamino)-4-(5-(trifluoromethyl)-1H-pyrrolo[2,3-b]pyridin-3-yl)pyrimidine-5-carbonitrile] | < 3 | 2952 |  |
| CC(Nc1ncc(C#N)c(-c2c[nH]c3ncc(C(F)(F)F)cc23)n1)c1ccc(N2CCCNCC2)cc1 (stereo not drawn) [Compound I-131, 2-(1-(4-(1,4-diazepan-1-yl)phenyl)ethylamino)-4-(5-(trifluoromethyl)-1H-pyrrolo[2,3-b]pyridin-3-yl)pyrimidine-5-carbonitrile] | < 3 | 180 | 163 |
| C[C@@H](Nc1ncc(C#N)c(-c2c[nH]c3ncc(C(F)(F)F)cc23)n1)c1ccc(N2CCN(C)CC2)cc1 [Compound I-127, 2-((R)-1-(4-(4-methylpiperazin-1-yl)phenyl)ethylamino)-4-(5-(trifluoromethyl)-1H-pyrrolo[2,3-b]pyridin-3-yl)pyrimidine-5-carbonitrile] | < 3 | 210 | 140 |
| CC(Nc1ncc(C#N)c(-c2c[nH]c3ncc(C(F)(F)F)cc23)n1)c1ccc(N[C@H]2CCNC2)nc1 (stereo partly drawn) [Compound I-277, 2-(1-(6-((S)-pyrrolidin-3-ylamino)pyridin-3-yl)ethylamino)-4-(5-(trifluoromethyl)-1H-pyrrolo[2,3-b]pyridin-3-yl)pyrimidine-5-carbonitrile] | < 3 |  | 39 |
| CC(Nc1ncc(C#N)c(-c2c[nH]c3ncc(C(F)(F)F)cc23)n1)c1ccc(N[C@@H]2CCNC2)nc1 (stereo partly drawn) [Compound I-272, 2-(1-(6-((R)-pyrrolidin-3-ylamino)pyridin-3-yl)ethylamino)-4-(5-(trifluoromethyl)-1H-pyrrolo[2,3-b]pyridin-3-yl)pyrimidine-5-carbonitrile] | < 3 | 67 | 14 |
| C[C@H]1CN(c2ccc([C@@H](C)Nc3ncc(C#N)c(-c4c[nH]c5ncc(C(F)(F)F)cc45)n3)cn2)CCN1 [Compound I-273, 2-((R)-1-(6-((S)-3-methylpiperazin-1-yl)pyridin-3-yl)ethylamino)-4-(5-(trifluoromethyl)-1H-pyrrolo[2,3-b]pyridin-3-yl)pyrimidine-5-carbonitrile] | < 3 | 1813 | 581 |
| C[C@@H](Nc1ncc(C#N)c(-c2c[nH]c3ncc(C(F)(F)F)cc23)n1)c1ccc(N2CCN(C)CC2)c(F)c1 [Compound I-142, 2-((R)-1-(3-fluoro-4-(4-methylpiperazin-1-yl)phenyl)ethylamino)-4-(5-(trifluoromethyl)-1H-pyrrolo[2,3-b]pyridin-3-yl)pyrimidine-5-carbonitrile] | < 3 | <30 | <23 |
| C[C@@H](Nc1ncc(C#N)c(-c2c[nH]c3ncc(C(F)(F)F)cc23)n1)c1ccc(N2CCN(C)CC2)nc1 (single isomer, unassigned) [Compound I-147] | < 3 | 523 | 186 |
| C[C@@H](Nc1ncc(C#N)c(-c2c[nH]c3ncc(C(F)(F)F)cc23)n1)c1ccc(N2CCNCC2)nc1 [Compound I-267, 2-((R)-1-(6-(piperazin-1-yl)pyridin-3-yl)ethylamino)-4-(5-(trifluoromethyl)-1H-pyrrolo[2,3-b]pyridin-3-yl)pyrimidine-5-carbonitrile] | < 3 | 1152 |  |
| C[C@@H](Nc1ncc(C#N)c(-c2c[nH]c3ncc(C(F)(F)F)cc23)n1)c1cnc(N[C@H]2CCN(C)C2)nc1 [Compound I-268, 2-((R)-1-(2-((S)-1-methylpyrrolidin-3-ylamino)pyrimidin-5-yl)ethylamino)-4-(5-(trifluoromethyl)-1H-pyrrolo[2,3-b]pyridin-3-yl)pyrimidine-5-carbonitrile] | < 3 | 293 | 141 |
| C[C@@H](Nc1ncc(C#N)c(-c2c[nH]c3ncc(C(F)(F)F)cc23)n1)C1CCN(C(=O)[C@H]2C[C@@H](N)C2)CC1 [Compound I-253, 2-((R)-1-(1-((1s,3S)-3-aminocyclobutanecarbonyl)piperidin-4-yl)ethylamino)-4-(5-(trifluoromethyl)-1H-pyrrolo[2,3-b]pyridin-3-yl)pyrimidine-5-carbonitrile] | < 3 |  |  |

From patent US8530489B2 (Vertex Pharmaceuticals Incorporated, priority 2006, dated 2013)
